Consider one molecule from paper PMC8386742, “Discovery of N-aryl sulphonamide-quinazoline derivatives as anti-gastric cancer agents in vitro and in vivo via activating the Hippo signalling pathway” (Journal of Enzyme Inhibition and Medicinal Chemistry, 2021).

For data set [1], the system named is MGC-803 cells. Nature of the data set: MTT antiproliferative assay, MGC-803 cells. The following applies: exposure for 48 h. The data set is classed as cell-based, human. The gist of the method: (§1)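 Cells were grown in RPMI-1640 with 10% FBS and seeded for 24 h before treatment. They were exposed to graded compound concentrations for 48 h, then MTT was added for 4 h at 37 °C. Formazan was dissolved in DMSO and absorbance read at 490 nm to derive IC50 values.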
(In general: Tetrazolium dyes change colour on reduction, which living cells bring about.)

Data set [2] concerns MCF-7 cells. Nature of the data set: MTT antiproliferative assay, MCF-7 cells. The class given is cell-based, human. Conditions: exposure for 48 h. The gist of the method: as §1
For data set [3], the system named is HGC-27 cells. Nature of the data set: MTT antiproliferative assay, HGC-27 gastric cancer cells. The class given is cell-based. As to the method:
(§2) Furthermore, MGC-803 cells were more sensitive to the compounds than HCT-116, PC-3 cells MCF-7 cells. Moreover, we chose two other common gastric cancer cell lines (HGC-27 and SGC-7901) and another two normal cells GES-1 and HUEVC cells to examine for the inhibitory activity of compound 9i.
(§3) Cell lines used were cultured in humidified incubator in a humidified atmosphere of 5% CO2 and 95% air. The RPMI-1640 medium was supplemented with 10% foetal bovine serum, penicillin (100 U/ml) and streptomycin (0.1 mg/ml).
(§4) Cell lines were seeded into 96-well plates and incubated for 24 h. Then cells were treated with different concentrations of compounds. And after another 48 h, MTT reagent (20 μL per well) was added to each well and then incubated at 37 °C for 4 h. After the suspension was discarded, formazan was then dissolved with DMSO. Absorbencies of formazan solution were measured at 490 nm. The IC50 values of tested compounds were calculated by SPSS version 17.0.

Data set [4] relates to GES-1 cells. The experiment in a line: MTT antiproliferative assay, GES-1 normal gastric epithelial cells. The data set is classed as cell-based.
Excerpt: as §2
Since compound 9i presented high potency against cancer cells and MGC-803 cells was more sensitive to compound 9i, compound 9i, MGC-803, another two gastric cancer cells SGC-7901, HGC-27, and GES-1(normal gastric epithelial cells) were used for further detection. As shown in Figures 3(A,B), compound 9i inhibited three gastric cancer cell lines in the dose and time-dependent manners. The inhibition ratios of compound 9i against three gastric cancer cells were all above 50% after 48 h in the high dosage group. Moreover, MGC-803 and SGC-7901 cell lines were more sensitive and compound 9i inhibited over 65% cell viability with high dose treatment for 48 h.
as §3, §4

For data set [5], the system named is MGC-803 cells. Nature of the data set: Annexin V-FITC/PI cell apoptosis assay, MGC-803 cells. The class given is cell-based, human. Conditions: MGC-803, high dose, 48 h. As to the method: Bcl-2 regulated by the Hippo/YAP plays an important role in cell apoptosis. Therefore, we next examined the effects of compound 9i on cell apoptosis. MGC-803 and SGC-7901 cells were treated with compound 9i for 48 h, as shown in Figures 5(A,B), the nuclei of gastric cancer are dense and fragmented, and cells became round, small, and was induced to die. To determine the influence of compound 9i on cell death, MGC-803 and SGC-7901 cells treated with compound 9i were stained with Annexin V-FITC/PI. As shown in Figure 5(C), the high dose compound 9i treatment group induced over 60% of cell apoptosis at 48 h. As shown in Figure 5(D), some other apoptosis-related proteins were also regulated by compound 9i in MGC-803 and SGC-7901 cells. Compound 9i caused dose-dependent decreases of anti-apoptosis proteins c-IAP and Mcl-1. […] Mitochondrial membrane potential depolarisation and translocation from the mitochondria to the cytoplasm of cytochrome c are two key steps involved in the intrinsic apoptosis pathway. As shown in Figures 5(F–H), compound 9i depolarised mitochondrial membrane potential and induced the translocation of cytochrome c.
Figure 5. Compound 9i induced apoptosis in MGC-803 and SGC-7901 cells. Density ratios relative to β-Actin were shown on the top of each Western blotting band. […] The cell line of each row appears only in tiny plot titles that cannot be read with certainty. […]

The subject of data set [6] is tubulin. Nature of the data set: Tubulin polymerization, extracellular. The data set is classed as biochemical. The following applies: 3 μmol/L. The text has this: In this work, compound 9i was design and synthesized by SAR study of our reported tertiary amide derivatives compound 1 and compound 2. Therefore, we tested the influence of compound 9i on tubulin polymerization and AKT/mTOR and ERK […]
influence on tubulin polymerization and P38, ERK, AKT, mTOR and Wnt pathways . […]
pathway. Therefore, we here reported N-sulfonamide-quinazoline derivatives as novel anti-gastric cancer agents via activating the Hippo signaling pathway in vitro and in […]
Supporting Figure S1. A. Activity of compound 9i on tubulin polymerization . Tubulin polymerization extracellular, concentrations of Paclitaxel, Colchicine and 9i were 3 μmol/L; Activity of compound 9i on P38, ERK, AKT, mTOR and Wnt pathways, cells were incubated with […]
(1 picture or pasted object on this page, not shown here)

What is called IC50 is the midpoint of a concentration-inhibition curve. Low readings indicate greater potency, high ones weaker potency.

`COc1ccc(S(=O)(=O)N(Cc2nc(C)c3ccccc3n2)c2cc(OC)c(OC)c(OC)c2)cc1` [Compound 9i, 4-Methoxy-N-((4-methylquinazolin-2-yl)methyl)-N-(3,4,5-trimethoxyphenyl) benzene-sulfonamide]: the IC50 in data set [1] (Homo sapiens, MGC-803, 48 h) came out at 0.36 ± 0.02 µM; in data set [1] it was 0.363 µM; in data set [2] (Homo sapiens, MCF7, 48 h) it was 0.816 µM; in data set [2], 0.81 ± 0.06 µM; in data set [3] (Homo sapiens, HGC-27, MTT, exposure for 48 h), 0.458 µM; in data set [4] (Homo sapiens, GES1, MTT, exposure for 48 h, non-cancer cell line), 0.894 µM. For the same molecule, in data set [3] (high dosage group, 48 h), the “inhibition ratio against HGC-27 cells” value is recorded as “above 50%”. In addition, in data set [4] (normal gastric epithelial cells), the “cytotoxicity towards GES-1 cells” value is “low cytotoxicity”. For the same molecule, the cell apoptosis result in data set [5] is recorded as “over 60%”. Moreover, the “influence on tubulin polymerization” value in data set [6] is listed as “no strong influence”.
